From patent publication US20250223560A1, “NOX4 INHIBITOR COMPOSITIONS AND METHODS FOR REGENERATION OF DYSTROPHIC MUSCLE” (FULCRUM THERAPEUTICS, INC., priority 2022, published 2025)

Legend:
[1] = system: D2.mdx mice; experiment: Seven-day GKT831 treatment of six-month-old D2.mdx mice (apoptosis, gene expression); assay type: in vivo, mouse; conditions: gastrocnemius, 60 mg/kg, seven days, vs vehicle
Description: (§1) Mice were housed 3-5 mice per cage, randomly assigned into groups, provided ad libitum access to food (NIH-31 Open formulation diet; Envigo #7917), water, and enrichment, and maintained on a 12-hour light/dark system. Once daily (Q.D.) GKT831 (purchased from Ambeed, Inc.) was administered orally (P.O.) suspended at a concentration of 36 mg/mL in a vehicle consisting of sterilized sunflower seed oil (Sigma-Aldrich). […] The GKT831 treatment group received a dose of 60 mg/kg (21). All animal procedures were approved and conducted in accordance with the University of Florida IACUC and reported using the recommendations of ARRIVE guidelines.
(§2) OCT-embedded murine tissues were cryo-sectioned at […] and fixed in 4% PFA. Immunofluorescent analysis was performed using anti-NOX4 (1:2000; Abcam #13303), anti-laminin (1:800; Novus #MAB2549), anti-vimentin (1:1000; Novus #MB300), anti-PDGFRα (1:500; R&D Systems #AF1062), anti-SMA (1:1000; Abcam #ab5694), anti-periostin (1:500, Abcam #ab14041), anti-Pax7 (1:100; R&D Systems #MAB1675), anti-Myosin X (1:800; Sigma #HPA024223) and anti-active caspase-3 (1:1000; Cell Signaling 49661) primary antibodies. Mouse tissue sections incubated with mouse monoclonal antibodies were first incubated with a solution containing donkey anti-mouse IgG AffiniPure Fab fragments (1:25 in PBS; Jackson ImmunoResearch #715-007-003) for one hour prior to blocking. Following overnight incubation in primary antibody, sections were rinsed with PBS and incubated with the appropriate species-specific secondary antibody (1:500 dilution). Lipofuscin-dependent autofluorescence was quenched using a 0.1% solution of Sudan black B following secondary antibody incubation. Slides were cover-slipped using Prolong Gold mounting reagent (Invitrogen). Images were acquired using a Leica SP8 confocal microscope. All comparative images were stained simultaneously and acquired using identical settings. Human samples were obtained through the National Disease Research Interchange (Philadelphia, PA).
Gene expression analysis was conducted as previously described (17) using the following mouse-specific primers: Col1a2 (forward) 5′-ATGGTGGCAGCCAGTTTGAA-3′ (SEQ ID NO: 1) and (reverse) 5′-TCCAGGTACGCAATGCTGTT-3′ (SEQ ID NO: 2); Acta2 (forward) 5′-CTACTGCCGAGCGTGAGATTGTCC-3′ (SEQ ID NO: 3) and (reverse) 5′-GAGGGCCCAGCTTCGTCGTATT-3′ (SEQ ID NO: 4); 116 (forward) 5′-AACCACGGCCTTCCCTACTTC-3′ (SEQ ID NO: 5) and (reverse) 5′-TCTGGCTTTGTCTTTCTTGTTATC-3′ (SEQ ID NO: 6); Tgfb1 (forward) 5′-GACTCTCCACCTGCAAGACCAT-3′ (SEQ ID NO: 7) and (reverse) 5′-GGGACTGGCGAGCCTTAGTT-3′ (SEQ ID NO: 8); Gapdh (forward) 5′-AGCAGGCATCTGAGGGCCCA-3′ (SEQ ID NO: 9) and (reverse) 5′-TGTTGGGGGCCGAGTTGGGA-3′ (SEQ ID NO: 10). Relative gene expression quantification was performed using the ΔΔCt method with Gapdh as the normalization gene.
Because the presumed mechanism attributed to myofibroblast clearance has been that of promoting their apoptosis (20), a short-term study was performed to investigate acute changes in muscle that result from NOX4 inhibition.

[2] = as described; cited from earlier work
[3] = system: D2.mdx mice; experiment: 3-month GKT831 treatment of D2.mdx mice, muscle histology and immunofluorescence; assay type: in vivo, mouse; conditions: 60 mg/kg P.O. Q.D.
Description: D2.mdx (Jax #013141) and D2.WT (Jax #000671) mice were originally obtained from Jackson Laboratory. The Nox4^KO:mdx mouse line was created by crossing the Nox4^tm1Klr knockout allele ((23); Jax #022996) onto the D2.mdx background for five generations, as previously reported (15). Following the second backcross, only Nox4^tm1Klr/+ mice homozygous for the DBA/2J polymorphism of […] were selected for continued line development (16). This is because both Nox4 and Ltbp4 are located on murine chromosome 7, and cross-over is required for both alleles to segregate together. At the completion of the backcrossing, Nox4 heterozygous breed pairs were mated to produce Nox4^WT:mdx and Nox4^KO:mdx littermates that were used in experiments. All mice were genotyped for Nox4 using primer sequences provided by Jackson Laboratory, and for Ltbp4 and mdx alleles using published genotyping primers (16).
as §1, §2
Picrosirius red staining was performed as previously described (14) following decalcification of muscle sections using Formical-2000 (StatLab). Slides were visualized with a Leica DMR microscope, and images were acquired using a Leica DFC310FX camera interfaced with Leica LAS X software. All comparative images were stained simultaneously and acquired using identical settings. Images were processed and analyzed by investigators blinded to study groups using ImageJ software, as previously described (14). Image quantification for each sample consisted of the mean value from five independent and randomly-selected fields of view for each muscle section.

With CN(C)c1cccc(-c2c3c(=O)n(-c4ccccc4Cl)[nH]c3cc(=O)n2C)c1 [FTX1620, Setanaxib] the “PDGFRα+ cells positive for active Caspase-3” value [1] was “significantly more”, the Acta2 expression ([1]; real-time PCR) was “decreased expression” and the Col1a2 expression ([1]; real-time PCR) was “decreased expression”. For the same compound, the Il6 expression ([1]; real-time PCR) was “decreased expression”, the Tgfb1 expression ([1]; real-time PCR) was “decreased expression” and the oral bioavailability [2] was “orally bioavailable”. For the same compound, the “localization of Pax7 cells” value ([3]; D2.mdx gastrocnemius, 3 months) was “largely re-localized”, the “muscle fibers having central nuclei” value ([3]; D2.mdx gastrocnemius, 3 months) was “increases” and the “muscle fibers with expression of myosin X” value ([3]; D2.mdx gastrocnemius, 3 months) was “increases”. For the same compound, the “myofibroblast numbers (PDGFRα, vimentin, SMA labeling)” value ([3]; D2.mdx gastrocnemius, 3 months) was “significantly reduced”, the “muscle fibrosis (picrosirius red, diaphragm and gastrocnemius)” value ([3]; D2.mdx mice, 3 months of treatment, evaluated at 6 months of age, vs vehicle) was “reduced D2.mdx muscle fibrosis” and the “periostin+ area” value ([3]; D2.mdx muscle, 3 months) was “significantly reduced”.
